Assay results reported in a melting point compilation (Tetko et al.; mined from patent text by program, amines drawn as free bases though some values may be those of a salt).

| melting point | SMILES |
| --- | --- |
| 172 to 174 °C | O=C(Nc1ccc(F)c(NC(=S)Nc2cccc(C(F)(F)F)c2)c1)c1ccc(Cl)c(Cl)c1 |
| 171 °C | CN(C)c1ccc(C=CC(=O)N2CCc3c([nH]c4ccccc34)C2c2ccc3c(c2)CCO3)cn1 (stereo unspecified) |
| 92 to 95 °C | Nc1sc2c(c1C(=O)c1ccccc1)CCSC2 |
| 74.7 to 75.9 °C | O=C(O)COCCOc1c(-c2cccc(C(F)(F)F)c2)cc(C(=O)NCCCCCCc2ccccc2)cc1-c1cccc(C(F)(F)F)c1 |
| 220 to 224 °C | COc1ccc(-c2cc(C(F)(F)F)nn2-c2ccc(S(N)(=O)=O)cc2)cc1I |
| 137 to 138 °C | CC(C)(C)c1cc(CN(c2cccnc2)S(=O)(=O)c2ccc(F)cc2)cc(C(C)(C)C)c1O |
| 116 to 118 °C | Cc1cc(C)c2cccc(OCc3c(Cl)ccc(S(=O)(=O)N4CCC[C@H]4C(=O)NCc4cccc(C(N)=S)c4)c3Cl)c2n1 |
| 144 to 146 °C | NC(=O)NCCCC(NC(=O)OCc1ccccc1)C(=O)OCc1ccc([N+](=O)[O-])cc1 (stereo unspecified) |
| 109 to 111 °C | O=C(Cc1cccc(Cl)c1F)c1ccc(F)c(Cl)c1 |
| 219 °C | Cc1cc2cc(CN3CCCC3)cnc2cc1NC(=O)c1ccc(-c2cc3ccccc3o2)cc1 |
| 159 to 160 °C | C=CCC(O)(CC=C)c1nc(-c2ccncc2)c(-c2ccc(Cl)cc2)n1CC |
| 93 to 99 °C | COc1cc(N2CCCN(C[C@H](O)CO)CC2)ccc1Nc1ncc2ccc(-c3ccccc3OC)n2n1 |
| 200 to 205 °C | O=C(O)Cc1c(Cl)nc(-c2ccccc2)n1Cc1cc([N+](=O)[O-])ccc1Cl |
| > 250 °C | Cc1ccc2sc3cc(C(=O)O)ccc3c(=O)c2c1 |
| 87 to 88 °C | Cc1cc(C)c2c(c1C)OCC2c1ccc(C=O)cc1 (stereo unspecified) |
| 105 to 107 °C | CCOC(=O)Oc1ccc(S(=O)(=O)N2c3cc(F)c(F)cc3-n3cccc3C2CC)cc1 (stereo unspecified) |
| 232 to 234 °C | Cc1c(N2C(=O)CCC2=O)nc(C)n2c1c(CCCl)c1ccccc12 |
| 177 to 179 °C | COCC1(C)CC(n2ccccc2=O)c2cc(C(N)=O)ccc2O1 (stereo unspecified) |
| 186 to 187 °C | CCOC(=O)/C=C/c1ccc(C=Cc2nc(-c3ccc4ccccc4c3)oc2C)cc1 |
| 97 to 98 °C | CCCc1sc(-c2ccccc2)nc1OC(=O)NC(C)(C)C |
| 165 to 173 °C | CC(C)C[C@@H](CO)NC(=O)[C@@H](O)[C@@H](Cc1ccc(S(C)(=O)=O)cc1)NC(=O)OCc1ccccc1 |
| 158 to 160 °C | CN1CC(NCc2ccccc2)=Nc2ccc(Cl)cc2C1=O |
| 188 to 192 °C | CCn1nnc(-c2ccc(C(=O)N[C@@H]3CCCC[C@@H]3c3ccc(OC)c(OC)c3)cc2)n1 |
| 167 to 168 °C | O=C(O)c1c(O)cccc1OCCC(c1ccccc1)(c1ccccc1)c1ccccc1 |
| 207 to 209 °C | CCN(CC)CCNC(=O)c1cccc2c(=O)cc(-c3ccc([N+](=O)[O-])cc3)oc12 |
| 110 °C | O=C(O)Cc1ccc(CCNC(=O)C2Cc3ccccc3N2S(=O)(=O)c2ccc(-c3cccc(C(F)(F)F)c3)cc2)cc1 (stereo unspecified) |
| 114 °C | OC1(c2ccc(Cl)cc2)CCN(CCNC(c2ccccc2)c2ccccc2)CC1 |

| melting point | SMILES |
| --- | --- |
| 137 to 139 °C | COc1ccc(N2CCN(c3c(C)c(C)c4c(c3C)CC(C)(CO)O4)CC2)cc1 (stereo unspecified) |
| 168 °C | Cc1cccc(NC(=O)NCC(=O)N2[C@@H](c3ccccc3)CC[C@H]2c2ccccc2)c1 |
| 80 to 82 °C | CCOc1ccc(N(Cc2ccccc2)Cc2ccccc2)cc1 |
| 51 to 53 °C | CCCc1c(OC(=O)OCC)ccc2oc(Cc3ccc(OC)cc3)c(C)c12 |
| 161 °C | CCCCC(=O)CC1c2ccccc2C(=O)N1c1ccc2ccc(OC)nc2n1 (stereo unspecified) |
| 304 to 306 °C | CC(C)CCNC(=O)c1cc2c(Nc3cccc(Cl)c3)ncnc2[nH]1 |
| > 300 °C | O=c1[nH]c(-c2csc3ccccc23)nc2ccc(N3CCCCC3)cc12 |
| 84 °C | COc1cccc(N2CCN(CC(O)COC(c3ccccc3)c3cccc4ccccc34)CC2)c1 (stereo unspecified) |
| 118 to 120 °C | CC(C)(O)c1ccc(CNC(=O)c2cccnc2Oc2ccc3c(c2)OCO3)cc1 |
| 317 to 319 °C | CC1(C)CC(=O)Nc2cc3nc(-c4ccc(C(N)=O)cc4)[nH]c3cc21 |
| 96 to 98 °C | CCCCC1=CC(O)(C(Br)Br)N(c2ccccc2)C1=O (stereo unspecified) |
| 82 to 83 °C | COc1cc(/C=C/C(=O)/C=C/c2ccc(O)c(OC)c2)ccc1O |
| 70.1 to 72.8 °C | CC(Cl)C(=O)NOCc1ccccc1 (stereo unspecified) |
| 171 to 172 °C | O=C(c1ccc(-c2ccccc2)cc1)N1Cc2cccn2Cc2ncccc21 |
| 86 to 88 °C | CC(C)n1nc(-c2sc(NC(=O)c3ccc(CNCCN4CCOCC4)cc3)nc2-c2ccccc2)ccc1=O |
| 185 to 188 °C | N#Cc1cc(N)c(F)c(-c2ccc(Cl)cc2)n1 |
| 133 °C | CNC1CCN(c2nc3ccccc3n2Cc2ccc(C#N)cc2)CC1 |
| 254 to 256 °C | O=C1CCC(N2Cc3c(CNC(=O)c4ccccn4)cccc3C2=O)C(=O)N1 (stereo unspecified) |
| 117 to 121 °C | CCOC(=O)C1CN(S(=O)(=O)c2ccc3cc(Br)ccc3c2)CCN1C(=O)C1CCN(c2ccncc2)CC1 (stereo unspecified) |
| > 320 °C | N#Cc1ccc(Cn2c(=O)sc3c(=O)[nH]c(N)nc32)cc1 |
| 149 to 150 °C | CCOC(=O)NC1(c2ccc(C(C)C)cc2OC)C(=O)c2ccccc2C1=O |
| 205 to 206 °C | Cc1ccc(C(=O)NC(NC(=S)Nc2cccc(F)c2)C(F)(F)F)cc1 (stereo unspecified) |
| 195 to 196 °C | COc1ccccc1-c1ccc(C(=O)N2Cc3ccc(C(=O)NC(CO)c4ccccc4)n3Cc3ccccc32)cc1 (stereo unspecified) |
| 105 to 110 °C | NC(=S)c1ccc(C(=O)NCc2ccc(N3CC(C(=O)O)OC3=O)cc2)cc1 (stereo unspecified) |
| 112 to 117 °C | CC(C)C1(C)NC(c2ccc3ccccc3n2)=NC1=O (stereo unspecified) |
| 72 to 75 °C | COc1cc(Nc2nccc(Nc3cccc(C)c3S(N)(=O)=O)n2)cc(OC)c1OC |
| 200 °C | Cc1cccc(Cl)c1NS(=O)(=O)c1nc(N)n(C(=O)Oc2ccccc2)n1 |

The next lines start with the molecule.

| SMILES | melting point |
| --- | --- |
| CN1CCCC[C@H]1C[C@H](O)c1ccc(Br)cc1 | 102 to 104 °C |
| CC(C)n1cc(-c2ccc(F)cc2)nn1 | 54 to 55 °C |
| CCCC(C)(C)c1cc(C=O)cc(C(C)(C)CCC)c1O | 90 to 92 °C |
| N#Cc1cccc2c1ccn2-c1ncc(C(F)(F)F)cc1Cl | 109 to 111 °C |
| O=[N+]([O-])c1cccc(S(=O)(=O)NCC2CC2)c1 | 91 °C |
| O=C1CCCN1c1cccc(CO)c1 | 120 to 121 °C |
| COc1cccc(OC)c1-c1cc(C(=O)NC2(C(=O)O)C3CC4CC(C3)CC2C4)nn1-c1ccc([N+](=O)[O-])cc1C (stereo unspecified) | 150 °C |
| Cc1nn(-c2ccc(C#N)c(Cl)c2)c(C)c1Cc1ccc(C(=O)NC(C)(C)C)cc1 | 135 to 136 °C |
| O=C1CSC(C(=O)O)Cc2cc3c(cc21)OCO3 (stereo unspecified) | 234 to 235 °C |
| CN=C1CN(c2ccccc2)C(=O)N1C | 160 to 162 °C |
| CC12OCC(CO)(CO1)CO2 | 110 to 112 °C |
| Cc1c(Cl)c(Oc2ncc(C(F)(F)F)cc2Cl)nn1C(=O)NCCCl | 112 to 114 °C |
| COc1ccc(CNC(=O)C23CC4CC(CC(C4)C2)C3)cc1OC | 120 to 122 °C |
| COC(=O)c1[nH]c2c(C)ccc(Cl)c2c1C(=O)OC | 173 to 174 °C |
| N#CC(OC1CCCCO1)c1ccc(Cl)c(Cl)c1 (stereo unspecified) | 61 °C |
| CC(=O)C(=Cc1cccc([N+](=O)[O-])c1)P(=O)(OCC(C)C)OCC(C)C | 81 to 82 °C |
| CCCc1cc(NC(=S)N2CCN(c3cc(OC)cc(OC)c3)CC2)c(OC)nc1C | 143 to 144 °C |
| CC(=O)Nc1ccc(Nc2c([N+](=O)[O-])cc(C(=O)O)cc2S(=O)(=O)NC(C)=O)cc1 | 175 to 185 °C |
| C[N+]([O-])=NNc1cccnc1 | 95 to 97 °C |
| COc1ccc2c(c1)C=Cn1c(nnc1S(C)=O)C2 (stereo unspecified) | 241 to 242 °C |
| O=c1cc(CBr)n(Cc2ccccc2)cc1OCCC12CC3CC(CC(C3)C1)C2 | 200 to 203 °C |

| SMILES | melting point |
| --- | --- |
| CNC(=O)C(Cc1ccc(F)cc1)NC(=O)Nc1n[nH]c(=S)s1 (stereo unspecified) | 225 to 227 °C |
| CNC(=O)c1ccc(Nc2nc(Nc3cc4c(cc3OC)CCN(CC(=O)N(C)C)CC4)ncc2Cl)c(OC)c1 | 138 to 147 °C |
| CCN(CC)C(=O)NC1CC2c3cccc4[nH]c(C#Cc5ccc(C#N)cc5)c(c34)CC2N(C)C1 (stereo unspecified) | 150 to 151 °C |
| CCc1nnc(N2CCN(c3ccc(N4CC(CNC(C)=O)OC4=O)cc3F)CC2)s1 (stereo unspecified) | 237 to 238 °C |
| CCCCCCCCN1C(=O)NC2(CC(C)(CC)N(CCOC(=O)c3ccccc3)C(C)(CC)C2C)C1=O (stereo unspecified) | 123 to 124 °C |
| N#CCc1ccc(NS(=O)(=O)c2ccc(N3CCNC3=O)cc2)cc1 | 204 to 206 °C |
| CC1(C(=O)N2C[C@H](S(=O)(=O)c3ccc(OCC(F)(F)F)cc3C(F)(F)F)C[C@H]2C(=O)NC2(C#N)CC2)CC1 | 126 to 127 °C |
| CCCCCCCCCCc1cc(CCCCCCCCCC)cc(N(CC(=O)O)CC(=O)O)c1 | 78 to 81 °C |
| Cc1nc(-c2ccc(Cl)cc2)n[nH]1 | 173 to 175 °C |
| O=C1CCC(C(=O)Nc2ccc(-n3nc(C(F)(F)F)cc3C(F)(F)F)cc2)O1 (stereo unspecified) | 172 to 173 °C |
| O=c1ccc2c([nH]1)CCN(Cc1ccccc1)C2 | 210 to 212 °C |
| CC(=O)CCc1cc(OC(C)=O)c(C(C)(C)C)cc1OC(C)=O | 66.5 to 68 °C |
| CCCNC(Nc1cc(C(F)(F)F)cc(C(F)(F)F)c1)=C(C#N)S(=O)(=O)c1ccc(Cl)cc1 | 196 to 198 °C |
| O=C(O)CCCCCCCCCCCCCCCI | 71 to 72 °C |
| COC(=O)CCc1ccc(O)c([N+](=O)[O-])c1 | 60 to 62 °C |
| CCNc1ccc(Cl)nc1 | 65 to 66 °C |
| CCCCC1OC(=O)c2cc(NC(N)=S)ccc21 (stereo unspecified) | 183 to 185 °C |
| CC1Cc2ccc([N+](=O)[O-])cc2C=N1 (stereo unspecified) | 110 to 112 °C |
| O=C(NC1N=C(c2ccccc2F)c2ccccc2NC1=O)c1ccc(C(F)(F)F)cc1 (racemic) | 209 to 211 °C |
| CCCN1CCN(c2nc(C)c(C(=O)NCc3cccnc3)s2)C1=O | 109 to 111 °C |
| CCCn1nnn(-c2cc(OCC(=O)O)c(Cl)cc2Cl)c1=O | 134 to 136 °C |
